Data taken from doi:10.1101/2021.04.08.439011v1 (biorxiv, 2021).
Where two headings read alike, the source gives them in different places.

Key:
[1] = target: TYK2(JH1domain-catalytic) (Homo sapiens, UniProt P29597); conditions: 0.1 µM; binder
LTK [2] = target: T1, LTK (Homo sapiens, UniProt P29376); test: biochemical; conditions: read-out: Percent Control
STK33 [3] = target: T2, STK33 (Homo sapiens, UniProt Q9BYT3); test: biochemical; conditions: read-out: Percent Control
DYRK1B [4] = target: T3, DYRK1B (Homo sapiens, UniProt Q9Y463); test: biochemical; conditions: read-out: Percent Control
T3 sequence (Q9Y463 whole entry): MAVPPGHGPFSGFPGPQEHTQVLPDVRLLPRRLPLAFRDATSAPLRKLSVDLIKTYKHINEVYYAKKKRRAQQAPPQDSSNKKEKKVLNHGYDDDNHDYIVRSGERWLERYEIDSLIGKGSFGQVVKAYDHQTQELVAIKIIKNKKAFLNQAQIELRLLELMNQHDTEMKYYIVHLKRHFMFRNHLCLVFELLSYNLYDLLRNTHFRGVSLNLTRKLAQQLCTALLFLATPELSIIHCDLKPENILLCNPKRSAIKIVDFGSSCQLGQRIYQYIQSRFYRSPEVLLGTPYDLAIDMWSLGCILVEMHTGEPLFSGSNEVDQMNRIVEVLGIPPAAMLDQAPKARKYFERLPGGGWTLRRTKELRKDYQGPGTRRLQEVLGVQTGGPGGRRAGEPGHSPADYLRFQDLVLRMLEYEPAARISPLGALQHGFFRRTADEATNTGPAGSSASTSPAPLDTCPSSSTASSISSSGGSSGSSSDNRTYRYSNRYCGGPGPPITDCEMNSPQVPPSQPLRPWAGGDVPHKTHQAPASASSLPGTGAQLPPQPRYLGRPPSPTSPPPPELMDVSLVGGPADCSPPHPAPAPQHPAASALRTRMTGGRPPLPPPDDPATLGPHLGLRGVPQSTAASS

[5] = target: JAK2(JH1domain-catalytic) (Homo sapiens, UniProt O60674); conditions: 0.1 µM; binder
GCN2(Kin.Dom.2,S808G) = GCN2(Kin.Dom.2,S808G) (Homo sapiens, UniProt Q9P2K8, S808G); conditions: 0.1 µM; binder
PKNB (M. tuberculosis) [6] = target: T4, PKNB (M. tuberculosis) (Mycobacterium tuberculosis, UniProt P9WI81); conditions: 0.1 µM; binder
T4 sequence (P9WI81 whole entry): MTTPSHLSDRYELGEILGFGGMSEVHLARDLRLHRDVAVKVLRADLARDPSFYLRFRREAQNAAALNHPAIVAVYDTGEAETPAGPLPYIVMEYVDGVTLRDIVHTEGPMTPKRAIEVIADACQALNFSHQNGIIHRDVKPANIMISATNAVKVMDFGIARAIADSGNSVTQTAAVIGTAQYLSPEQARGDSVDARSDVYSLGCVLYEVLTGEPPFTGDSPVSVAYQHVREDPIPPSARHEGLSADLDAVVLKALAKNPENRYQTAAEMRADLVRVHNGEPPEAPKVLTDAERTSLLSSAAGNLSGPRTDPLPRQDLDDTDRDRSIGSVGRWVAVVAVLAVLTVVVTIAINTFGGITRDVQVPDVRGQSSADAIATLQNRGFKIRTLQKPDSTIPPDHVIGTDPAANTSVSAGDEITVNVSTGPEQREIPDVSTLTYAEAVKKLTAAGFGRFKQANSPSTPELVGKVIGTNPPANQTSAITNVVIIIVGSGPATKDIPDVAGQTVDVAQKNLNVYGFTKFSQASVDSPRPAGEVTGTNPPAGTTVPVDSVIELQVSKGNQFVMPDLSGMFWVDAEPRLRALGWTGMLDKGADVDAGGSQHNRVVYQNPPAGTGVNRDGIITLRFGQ

[7] = target: RPS6KA5(Kin.Dom.1-N-terminal) (Homo sapiens, UniProt O75582); conditions: 0.1 µM; binder
LTK [8] = target: T1, LTK; test: biochemical; conditions: read-out: Percent Control; remark: listed apart in the source
STK33 [9] = target: T2, STK33; test: biochemical; conditions: read-out: Percent Control; remark: listed apart in the source
DYRK1B [10] = target: T3, DYRK1B; test: biochemical; conditions: read-out: Percent Control; remark: listed apart in the source
PFCDPK1 (P. falciparum) [11] = target: T5, PFCDPK1 (P. falciparum) (Plasmodium falciparum, UniProt P62344); conditions: 1 µM; binder
T5 sequence (P62344 whole entry): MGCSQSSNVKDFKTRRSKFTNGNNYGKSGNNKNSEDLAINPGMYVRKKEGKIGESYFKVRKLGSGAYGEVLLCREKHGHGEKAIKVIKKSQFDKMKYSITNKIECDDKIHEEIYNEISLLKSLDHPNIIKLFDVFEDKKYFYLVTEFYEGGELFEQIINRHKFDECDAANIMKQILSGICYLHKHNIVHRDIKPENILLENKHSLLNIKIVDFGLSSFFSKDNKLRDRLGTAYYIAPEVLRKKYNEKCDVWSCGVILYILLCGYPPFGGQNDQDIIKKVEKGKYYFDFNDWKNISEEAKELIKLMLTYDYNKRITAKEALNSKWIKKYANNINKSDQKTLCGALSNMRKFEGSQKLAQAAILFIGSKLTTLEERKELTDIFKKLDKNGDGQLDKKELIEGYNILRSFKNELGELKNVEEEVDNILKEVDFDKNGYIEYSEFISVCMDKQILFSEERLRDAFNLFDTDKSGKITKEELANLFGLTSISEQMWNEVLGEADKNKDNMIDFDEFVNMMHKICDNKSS

[12] = target: TYK2(JH2domain-pseudokinase) (Homo sapiens, UniProt P29597); conditions: 0.1 µM; binder
[13] = target: RSK4(Kin.Dom.2-C-terminal) (Homo sapiens, UniProt Q9UK32); conditions: 0.1 µM; binder
[14] = target: RPS6KA4(Kin.Dom.1-N-terminal) (Homo sapiens, UniProt O75676); conditions: 0.1 µM; binder
[15] = target: RSK1(Kin.Dom.2-C-terminal) (Homo sapiens, UniProt Q15418); conditions: 0.1 µM; binder
RSK1(Kin.Dom.2-C-terminal), sequence (Q15418 whole entry): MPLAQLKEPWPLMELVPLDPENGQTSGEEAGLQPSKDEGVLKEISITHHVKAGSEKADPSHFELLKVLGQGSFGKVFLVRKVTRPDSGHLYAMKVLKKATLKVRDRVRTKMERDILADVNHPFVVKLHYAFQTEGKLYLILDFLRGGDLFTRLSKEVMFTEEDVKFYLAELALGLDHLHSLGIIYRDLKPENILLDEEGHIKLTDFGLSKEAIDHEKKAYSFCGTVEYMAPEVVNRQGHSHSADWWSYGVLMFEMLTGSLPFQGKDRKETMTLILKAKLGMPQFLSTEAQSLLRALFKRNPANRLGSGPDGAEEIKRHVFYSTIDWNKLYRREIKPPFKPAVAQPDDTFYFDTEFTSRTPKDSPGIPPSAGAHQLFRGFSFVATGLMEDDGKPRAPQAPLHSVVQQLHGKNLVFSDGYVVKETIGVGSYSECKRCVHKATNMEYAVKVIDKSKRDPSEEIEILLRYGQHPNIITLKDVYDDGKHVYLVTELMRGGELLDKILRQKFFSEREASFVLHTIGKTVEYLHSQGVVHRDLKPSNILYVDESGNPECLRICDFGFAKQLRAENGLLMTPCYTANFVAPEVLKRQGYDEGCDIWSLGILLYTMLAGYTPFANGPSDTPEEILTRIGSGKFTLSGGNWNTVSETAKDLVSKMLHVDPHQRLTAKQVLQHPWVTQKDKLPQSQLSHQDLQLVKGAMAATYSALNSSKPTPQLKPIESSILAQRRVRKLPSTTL

[16] = target: RSK2(Kin.Dom.2-C-terminal) (Homo sapiens, UniProt P51812); conditions: 0.1 µM; binder
[17] = target: RSK3(Kin.Dom.2-C-terminal) (Homo sapiens, UniProt Q15349); conditions: 0.1 µM; binder
PKNB (M. tuberculosis) [18] = target: T4, PKNB (M. tuberculosis); conditions: 1 µM; binder
[19] = target: RSK1(Kin.Dom.1-N-terminal) (Homo sapiens, UniProt Q15418); conditions: 0.1 µM; binder
RSK1(Kin.Dom.1-N-terminal), sequence (Q15418 whole entry): as above

[20] = target: RPS6KA4(Kin.Dom.2-C-terminal) (Homo sapiens, UniProt O75676); conditions: 0.1 µM; binder
[21] = target: RSK3(Kin.Dom.1-N-terminal) (Homo sapiens, UniProt Q15349); conditions: 0.1 µM; binder
PFCDPK1 (P. falciparum) [22] = target: T5, PFCDPK1 (P. falciparum); conditions: 0.1 µM; binder
[23] = target: JAK3(JH1domain-catalytic) (Homo sapiens, UniProt P52333); conditions: 0.1 µM; binder
JAK3(JH1domain-catalytic), sequence (P52333 whole entry): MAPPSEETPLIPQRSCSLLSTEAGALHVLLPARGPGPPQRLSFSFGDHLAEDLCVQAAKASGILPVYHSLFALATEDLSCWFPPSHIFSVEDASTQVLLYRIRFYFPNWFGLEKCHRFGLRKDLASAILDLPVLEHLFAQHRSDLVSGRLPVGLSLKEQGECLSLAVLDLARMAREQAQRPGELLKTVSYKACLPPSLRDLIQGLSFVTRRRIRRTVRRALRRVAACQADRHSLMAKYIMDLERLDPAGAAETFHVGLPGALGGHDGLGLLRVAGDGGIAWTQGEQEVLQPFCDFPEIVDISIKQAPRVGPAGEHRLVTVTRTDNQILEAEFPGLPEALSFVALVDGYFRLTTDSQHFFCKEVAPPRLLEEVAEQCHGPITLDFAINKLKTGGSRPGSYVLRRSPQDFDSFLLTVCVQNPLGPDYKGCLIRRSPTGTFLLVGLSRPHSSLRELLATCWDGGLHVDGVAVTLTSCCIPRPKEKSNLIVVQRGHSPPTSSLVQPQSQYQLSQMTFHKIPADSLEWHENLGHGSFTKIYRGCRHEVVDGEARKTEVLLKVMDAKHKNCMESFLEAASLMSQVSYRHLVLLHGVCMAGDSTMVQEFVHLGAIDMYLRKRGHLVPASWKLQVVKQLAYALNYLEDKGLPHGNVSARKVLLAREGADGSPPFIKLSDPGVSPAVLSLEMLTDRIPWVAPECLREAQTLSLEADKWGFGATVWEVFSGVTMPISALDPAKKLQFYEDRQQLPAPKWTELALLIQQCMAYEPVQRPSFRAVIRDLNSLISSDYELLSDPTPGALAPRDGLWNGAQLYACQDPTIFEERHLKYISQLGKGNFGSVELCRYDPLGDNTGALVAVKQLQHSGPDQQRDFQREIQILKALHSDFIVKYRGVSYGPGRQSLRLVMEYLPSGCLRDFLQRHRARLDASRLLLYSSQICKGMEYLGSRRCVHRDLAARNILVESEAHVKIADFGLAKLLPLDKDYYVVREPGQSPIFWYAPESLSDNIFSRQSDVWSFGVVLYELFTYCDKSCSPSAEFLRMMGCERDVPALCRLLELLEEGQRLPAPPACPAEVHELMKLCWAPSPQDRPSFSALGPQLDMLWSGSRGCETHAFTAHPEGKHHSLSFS

[24] = target: RSK2(Kin.Dom.1-N-terminal) (Homo sapiens, UniProt P51812); conditions: 0.1 µM; binder
CDK4-cyclinD1 = CDK4-cyclinD1 (Homo sapiens, UniProt P11802); conditions: 0.1 µM; binder
PFPK5(P. falciparum) = PFPK5(P. falciparum) (Plasmodium falciparum, UniProt P61075); conditions: 0.1 µM; binder
[25] = target: RPS6KA5(Kin.Dom.2-C-terminal) (Homo sapiens, UniProt O75582); conditions: 0.1 µM; binder

T1 sequence (P29376 whole entry): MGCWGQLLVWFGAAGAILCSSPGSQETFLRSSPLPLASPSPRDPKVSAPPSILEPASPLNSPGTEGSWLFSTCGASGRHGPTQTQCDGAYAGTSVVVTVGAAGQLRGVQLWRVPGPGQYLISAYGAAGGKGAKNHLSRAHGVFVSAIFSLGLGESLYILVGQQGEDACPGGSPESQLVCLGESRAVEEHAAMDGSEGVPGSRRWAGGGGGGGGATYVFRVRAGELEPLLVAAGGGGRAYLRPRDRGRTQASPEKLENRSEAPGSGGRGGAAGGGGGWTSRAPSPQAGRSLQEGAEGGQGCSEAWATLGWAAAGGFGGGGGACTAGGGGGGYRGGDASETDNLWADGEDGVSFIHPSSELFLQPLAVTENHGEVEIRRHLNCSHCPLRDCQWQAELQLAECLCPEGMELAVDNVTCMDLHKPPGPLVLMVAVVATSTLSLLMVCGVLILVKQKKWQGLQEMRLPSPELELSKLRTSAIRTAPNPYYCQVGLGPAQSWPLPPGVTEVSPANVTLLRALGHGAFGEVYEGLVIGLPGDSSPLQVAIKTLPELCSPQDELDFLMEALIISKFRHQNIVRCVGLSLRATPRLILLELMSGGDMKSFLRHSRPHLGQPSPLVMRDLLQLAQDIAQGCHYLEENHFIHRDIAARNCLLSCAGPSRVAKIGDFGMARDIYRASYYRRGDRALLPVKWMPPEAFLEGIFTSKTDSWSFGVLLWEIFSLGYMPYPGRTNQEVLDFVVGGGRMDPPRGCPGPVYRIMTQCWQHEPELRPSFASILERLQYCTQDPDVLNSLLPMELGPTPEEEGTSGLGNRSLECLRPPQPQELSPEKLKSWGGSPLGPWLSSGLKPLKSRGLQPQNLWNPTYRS
T2 sequence (Q9BYT3 whole entry): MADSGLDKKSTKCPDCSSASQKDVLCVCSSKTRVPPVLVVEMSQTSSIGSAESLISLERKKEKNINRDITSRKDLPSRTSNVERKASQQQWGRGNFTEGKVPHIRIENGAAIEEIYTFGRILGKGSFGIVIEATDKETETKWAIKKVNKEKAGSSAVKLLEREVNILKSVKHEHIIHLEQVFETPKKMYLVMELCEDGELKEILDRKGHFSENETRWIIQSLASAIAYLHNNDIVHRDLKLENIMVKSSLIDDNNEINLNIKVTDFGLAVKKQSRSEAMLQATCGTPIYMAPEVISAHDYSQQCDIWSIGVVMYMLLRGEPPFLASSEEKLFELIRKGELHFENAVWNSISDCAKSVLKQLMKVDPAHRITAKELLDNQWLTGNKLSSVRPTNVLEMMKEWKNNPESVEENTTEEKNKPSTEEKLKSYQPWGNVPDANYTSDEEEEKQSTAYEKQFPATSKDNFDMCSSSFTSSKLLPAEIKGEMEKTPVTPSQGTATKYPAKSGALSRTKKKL

## CNc1ncc2cc(-c3ccc(-c4cccc(C)n4)cc3Cl)c(=O)n(C[C@H]3OC[C@H](N)CO3)c2n1 [compound 6, G-5555]
[1]
  Percent Control: 94%
LTK [2]
  remaining activity at 1 µM: 4.1%
STK33 [3]
  remaining activity at 1 µM: 75%
DYRK1B [4]
  remaining activity at 1 µM: 49%
[5]
  Percent Control: 99%
GCN2(Kin.Dom.2,S808G)
  Percent Control: 76%
PKNB (M. tuberculosis) [6]
  Percent Control: 100%
[7]
  Percent Control: 100%
LTK [8]
  remaining activity at 0.1 µM: 28%
STK33 [9]
  remaining activity at 0.1 µM: 100%
DYRK1B [10]
  remaining activity at 0.1 µM: 61%
PFCDPK1 (P. falciparum) [11]
  Percent Control: 0.4%
[12]
  Percent Control: 84%
[13]
  Percent Control: 100%
[14]
  Percent Control: 100%
[15]
  Percent Control: 100%
[16]
  Percent Control: 83%
[17]
  Percent Control: 100%
PKNB (M. tuberculosis) [18]
  Percent Control: 51%
[19]
  Percent Control: 79%
[20]
  Percent Control: 100%
[21]
  Percent Control: 100%
PFCDPK1 (P. falciparum) [22]
  Percent Control: 9.1%
[23]
  Percent Control: 100%
[24]
  Percent Control: 94%
CDK4-cyclinD1
  Percent Control: 100%
PFPK5(P. falciparum)
  Percent Control: 90%
[25]
  Percent Control: 100%
